Measurements taken from patent publication US9255063B2, “Colchicine solid-state forms; methods of making; and methods of use thereof” (Takeda Pharmaceuticals U.S.A., Inc., priority 2008, dated 2016).

Key:
[1] = TG-FTIR, N2 atmosphere, heating rate 10 K/min, range 25° C. to 350° C.
[2] = 81% RH; nitrogen; 38 days
Method: Five techniques are used to find colchicine solid forms: 1) suspension equilibration, 2) precipitation 3) drying and water vapor adsorption, 4) evaporation, and 5) melt quench. Suspension equilibration generally is carried out by slurrying the colchicine in a solvent system, optionally including an antisolvent. Precipitation generally is carried out by adding an antisolvent to a solution of colchicine. Evaporation technique is generally carried out by allowing the solvent of a solution of colchicine to evaporate to induce crystallization of the colchicine. Water vapor adsorption technique generally involves exposing colchicine to a controlled humid environment so that the material takes up water. The drying experiments can be performed under inert atmospheres (e.g., nitrogen). Melt quench generally involves fast cooling a melt to form a solid.

| SMILES | Decomposition is observed above (temperature) [1] | Ethyl acetate content after water vapor adsorption [2] | Water content after water vapor adsorption [2] |
| --- | --- | --- | --- |
| COc1cc2c(c(OC)c1OC)-c1ccc(OC)c(=O)cc1[C@@H](NC(C)=O)CC2 [Form F] | above 280 °C | – | – |
| COc1cc2c(c(OC)c1OC)-c1ccc(OC)c(=O)cc1[C@@H](NC(C)=O)CC2 [Form E] | above 250 °C | – | – |
| COc1cc2c(c(OC)c1OC)-c1ccc(OC)c(=O)cc1[C@@H](NC(C)=O)CC2 [Form A, (−)-N-[(7S,12aS)-1,2,3,10-tetramethoxy-9-oxo-5,6,7,9-tetrahydrobenzo[a]heptalen-7-yl]-acetamide] | above 275 °C | 2% ethyl | 4% water and |
